Structures are written as SMILES.

Test [1] concerns the target Kelch domain of human KEAP1 (321-624 aa) (Homo sapiens (Human), UniProt Q14145). Put plainly: KEAP1 KELCH ThermoFluor binding assay.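 Further: Ligand-induced melting temperature shift of E. coli-expressed KEAP1 Kelch protein, Kd estimated from concentration-response curves of ΔTm.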 The conditions noted are these: KEAP Kelch […], 1,8-ANS, pH 7.0, average of results obtained, read-out: Tf Kd. A general note: In DSF a fluorescence change marks the thermal transition of the protein.
Test [2] has as its system Glo-Response ARE-luc2P HEK293 cell line. Put plainly: ARE luciferase reporter cell-based assay.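 Further: luciferase signal tracks Nrf2 activation of the ARE once compounds disrupt KEAP1-Nrf2 binding, read with One-Glo reagent, DMSO serving as low control.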 The conditions noted are these: Homo sapiens, HEK293, 24 h, average of results obtained. A general note: Reporter assays use an easily measured gene product as a stand-in for the process of interest.

Chain of Kelch domain of human KEAP1 (321-624 aa) (Q14145 321-624): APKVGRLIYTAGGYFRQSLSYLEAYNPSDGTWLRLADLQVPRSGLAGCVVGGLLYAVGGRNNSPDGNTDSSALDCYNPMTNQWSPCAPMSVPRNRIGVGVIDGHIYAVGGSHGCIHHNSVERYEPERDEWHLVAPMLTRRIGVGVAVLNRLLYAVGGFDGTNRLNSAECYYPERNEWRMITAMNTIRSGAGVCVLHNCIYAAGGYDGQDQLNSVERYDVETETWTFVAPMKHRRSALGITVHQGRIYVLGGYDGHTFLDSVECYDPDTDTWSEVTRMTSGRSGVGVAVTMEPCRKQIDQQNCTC

A word on the Kd: it is the constant that tells how readily two partners part at equilibrium. In general, EC50 refers to the concentration at which the effect is half-maximal. On to `Cc1ccc(C(CC(=O)O)c2ccc3c(nnn3CC3CC3)c2C)cc1CN1CC2(CC2)N(C)c2ncccc2S1(=O)=O` (stereo not shown) [Example 75, 3-(1-(Cyclopropylmethyl)-4-methyl-1H-benzo[d][1,2,3]triazol-5-yl)-3-(4-methyl-3-((5′-methyl-1′,1′-dioxido-5′H-spiro[cyclopropane-1,4′-pyrido[2,3-f][1,2,5]thiadiazepin]-2′(3′H)-yl)methyl)phenyl)propanoic Acid], for which, in test [1], the Kd is under 1 nM. The midpoint of the response in test [2], the EC50, lay at 14 nM.

`Cc1c(C(CC(=O)O)c2ccc(Cl)c(CN3CC4CCCCN4c4ncccc4S3(=O)=O)c2)ccn2c(C(F)(F)F)nnc12` (stereo not shown) [Example 83, 3-(4-Chloro-3-(((*S)-5,5-dioxido-7,7a,8,9,10,11-hexahydro-6H-dipyrido[2,1-d:2′,3′-f][1,2,5]thiadiazepin-6-yl)methyl)phenyl)-3-(8-methyl-3-(trifluoromethyl)-[1,2,4]triazolo[4,3-a]pyridine-7-yl)propanoic Acid]: the Kd in test [1] was under 1 nM. Besides, in test [2], the EC50 was determined as 232 nM.

For the molecule `Cc1c(C(CC(=O)O)c2ccc(Cl)c(CN3CC4(COC4)Oc4ncccc4S3(=O)=O)c2)ccn2c(C(F)(F)F)nnc12` (stereo not shown) [Example 86, 3-(4-Chloro-3-((1′,1′-dioxoidospiro[oxetane-3,4′-pyrido[2,3-b][1,4,5]oxathiazepin]-2′(3′H)-yl)methyl)phenyl)-3-(8-methyl-3-(trifluoromethyl)-[1,2,4]triazolo[4,3-a]pyridine-7-yl)propanoic Acid], the Kd in test [1] came to 2.4 nM. This molecule yielded an EC50 in test [2] of 6240 nM.

Consider `Cc1cnc2c(c1)S(=O)(=O)N(Cc1cc(C(CC(=O)O)c3ccn4c(C(F)(F)F)nnc4c3C)ccc1Cl)CC1CCCCN21` (stereo not shown) [Example 89, 3-(4-Chloro-3-(((*S)-3-methyl-5,5-dioxido-7,7a,8,9,10,11-hexahydro-6H-dipyrido[2,1-d:2′,3′-f][1,2,5]thiadiazepin-6-yl)methyl)phenyl)-3-(8-methyl-3-(trifluoromethyl)-[1,2,4]triazolo[4,3-a]pyridine-7-yl)propanoic Acid], for which the Kd in test [1] came out at 0.0054 nM. Further, the EC50 in test [2] turned out to be 6.9 nM.

Turning to `Cc1c(C(CC(=O)O)c2ccc(Cl)c(CN3CC4CCCCN4c4ncc(F)cc4S3(=O)=O)c2)ccn2c(C(F)(F)F)nnc12` (stereo not shown) [Example 92, 3-(4-Chloro-3-(((*S)-3-fluoro-5,5-dioxido-7,7a,8,9,10,11-hexahydro-6H-dipyrido[2,1-d:2′,3′-f][1,2,5]thiadiazepin-6-yl)methyl)phenyl)-3-(8-methyl-3-(trifluoromethyl)-[1,2,4]triazolo[4,3-a]pyridine-7-yl)propanoic Acid], the Kd in test [1] is under 1 nM. For the same molecule, in test [2], the EC50 turned out to be 28.6 nM.

With `Cc1ccc(C(c2ccn3c(C(F)(F)F)nnc3c2C)C(C)(C)C(=O)O)cc1CN1CC2(CCOCC2)Oc2nc(N[C@H](C)CCO)ccc2S1(=O)=O` (stereo partly shown) [Example 117], the Kd in test [1] is under 1 nM. Moreover, the EC50 in test [2] came out at 425 nM.

For the molecule `Cc1ccc(C(c2ccn3c(C(F)(F)F)nnc3c2C)C(C)(C)C(=O)O)cc1CN1CC2(CCOCC2)Oc2nc(N[C@@H](C)CCO)ccc2S1(=O)=O` (stereo partly shown) [Example 118], the Kd in test [1] was under 1 nM. Besides, a half-maximal effect in test [2] (EC50) was put at 324 nM.

Turning to `CCn1nnc2c(C)c(C(CC(=O)O)c3ccc(C)c(CN4CC5(COC5)Oc5ncccc5S4(=O)=O)c3)ccc21` (stereo not shown) [Example 252, 3-(3-((1′,1′-Dioxidospiro[oxetane-3,4′-pyrido[2,3-b][1,4,5]oxathiazepin]-2′(3′H)-yl)methyl)-4-methylphenyl)-3-(1-ethyl-4-methyl-1H-benzo[d][1,2,3]triazol-5-yl)propanoic Acid], the Kd in test [1] is under 1 nM. For the same molecule, in test [2], the EC50 is 21 nM.

In the case of `Cc1ccc(C(CC(=O)O)c2ccn3c(C(F)(F)F)nnc3c2)cc1CN1C[C@@H]2CCCN2c2ncccc2S1(=O)=O` (stereo partly drawn) [Example 253, 3-(3-(((S)-5,5-Dioxido-7a,8,9,10-tetrahydropyrido[2,3-f]pyrrolo[2,1-d][1,2,5]thiadiazepin-6(7H)-yl)methyl)-4-methylphenyl)-3-(3-(trifluoromethyl)-[1,2,4]triazolo[4,3-a]pyridin-7-yl)propanoic Acid], the Kd in test [1] was under 1 nM. The molecule also displayed an EC50 in test [2] of 1170 nM.

On to `CC[C@@H]1CN(Cc2cc(C(CC(=O)O)c3ccn4c(C(F)(F)F)nnc4c3)ccc2C)S(=O)(=O)c2cccnc2O1` (stereo partly drawn) [Example 256, 3-(3-(((R)-4-Ethyl-1,1-dioxido-3,4-dihydro-2H-pyrido[2,3-b][1,4,5]oxathiazepin-2-yl)methyl)-4-methylphenyl)-3-(3-(trifluoromethyl)-[1,2,4]triazolo[4,3-a]pyridin-7-yl)propanoic Acid], for which the Kd in test [1] is under 1 nM. Further, in test [2], a half-maximal response (EC50) required 379 nM.

For the molecule `Cc1ccc(C(CC(=O)O)c2ccn3c(C(F)(F)F)nnc3c2C)cc1CN1CC2(COC2)Oc2ncccc2S1(=O)=O` (stereo not shown) [Example 259, 3-(3-((1′,1′-Dioxidospiro[oxetane-3,4′-pyrido[2,3-b][1,4,5]oxathiazepin]-2′(3′H)-yl)methyl)-4-methylphenyl)-3-(8-methyl-3-(trifluoromethyl)-[1,2,4]triazolo[4,3-a]pyridin-7-yl)propanoic Acid], the Kd in test [1] was under 1 nM. The molecule further registered an EC50 in test [2] of 201 nM.

As to `Cc1ccc(C(CC(=O)O)c2ccn3c(C(F)(F)F)nnc3c2C)cc1CN1C[C@H]2CCCN2c2ncccc2S1(=O)=O` (stereo partly drawn) [Example 264, 3-(3-(((R)-5,5-Dioxido-7a,8,9,10-tetrahydropyrido[2,3-f]pyrrolo[2,1-d][1,2,5]thiadiazepin-6(7H)-yl)methyl)-4-methylphenyl)-3-(8-methyl-3-(trifluoromethyl)-[1,2,4]triazolo[4,3-a]pyridin-7-yl)propanoic Acid], the Kd in test [1] was under 1 nM. In test [2], this molecule returned an EC50 of 18.3 nM.

`Cc1ccc(C(CC(=O)O)c2ccn3c(C(F)(F)F)nnc3c2C)cc1CN1C[C@H]2CCCN2c2ccccc2S1(=O)=O` (stereo partly drawn) [Example 265, 3-(3-(((R)-5,5-Dioxido-7a,8,9,10-tetrahydrobenzo[f]pyrrolo[2,1-d][1,2,5]thiadiazepin-6(7H)-yl)methyl)-4-methylphenyl)-3-(8-methyl-3-(trifluoromethyl)-[1,2,4]triazolo[4,3-a]pyridin-7-yl)propanoic Acid]: the Kd in test [1] is under 1 nM. The molecule further displayed an EC50 in test [2] of 31.2 nM.

Turning to `Cc1ccc(C(CC(=O)O)c2ccn3c(C(F)(F)F)nnc3c2C)cc1CN1CC(C)(C)Oc2ncccc2S1(=O)=O` (stereo not shown) [Example 268, 3-(3-((4,4-Dimethyl-1,1-dioxido-3,4-dihydro-2H-pyrido[2,3-b][1,4,5]oxathiazepin-2-yl)methyl)-4-methylphenyl)-3-(8-methyl-3-(trifluoromethyl)-[1,2,4]triazolo[4,3-a]pyridin-7-yl)propanoic Acid], the Kd in test [1] is under 1 nM. Further, a half-maximal effect in test [2] (EC50) was put at 516 nM.

Consider `CCc1nnc2c(C)c(C(CC(=O)O)c3ccc(C)c(CN4C[C@H]5CCCN5c5ccccc5S4(=O)=O)c3)ccn12` (stereo partly drawn) [Example 278, 3-(3-(((R)-5,5-Dioxido-7a,8,9,10-tetrahydrobenzo[f]pyrrolo[2,1-d][1,2,5]thiadiazepin-6(7H)-yl)methyl)-4-methylphenyl)-3-(3-ethyl-8-methyl-[1,2,4]triazolo[4,3-a]pyridin-7-yl)propanoic Acid], for which the Kd in test [1] was under 1 nM. The molecule further yielded an EC50 in test [2] of 467 nM.

As for `CCc1nnc2c(C)c(C(CC(=O)O)c3ccc(C)c(CN4C[C@H]5CCCN5c5ncccc5S4(=O)=O)c3)ccn12` (stereo partly drawn) [Example 281, 3-(3-(((R)-5,5-Dioxido-7a,8,9,10-tetrahydropyrido[2,3-f]pyrrolo[2,1-d][1,2,5]thiadiazepin-6(7H)-yl)methyl)-4-methylphenyl)-3-(3-ethyl-8-methyl-[1,2,4]triazolo[4,3-a]pyridin-7-yl)propanoic Acid], in test [1], the Kd was under 1 nM. Besides, the EC50 in test [2] was determined as 480 nM.

Take `Cc1ccc(C(CC(=O)O)c2ccn3c(C(F)(F)F)nnc3c2C)cc1CN1CC2(COC2)Oc2ccccc2S1(=O)=O` (stereo not shown) [Example 287, 3-(3-((1,1-Dioxidospiro[benzo[b][1,4,5]oxathiazepine-4,3′-oxetan]-2(3H)-yl)methyl)-4-methylphenyl)-3-(8-methyl-3-(trifluoromethyl)-[1,2,4]triazolo[4,3-a]pyridin-7-yl)propanoic Acid]: in test [1], the Kd is under 1 nM. The molecule also returned an EC50 in test [2] of 28.1 nM.

For `CCn1nnc2c(C)c(C(CC(=O)O)c3ccc(C)c(CN4C[C@H]5CCCN5c5ncccc5S4(=O)=O)n3)ccc21` (stereo partly drawn) [Example 296, 3-(6-(((R)-5,5-Dioxido-7a,8,9,10-tetrahydropyrido[2,3-f]pyrrolo[2,1-d][1,2,5]thiadiazepin-6(7H)-yl)methyl)-5-methylpyridin-2-yl)-3-(1-ethyl-4-methyl-1H-benzo[d][1,2,3]triazol-5-yl)propanoic Acid], the Kd in test [1] was under 1 nM. In addition, the EC50 in test [2] amounted to 13.6 nM.

For `Cc1ccc(C(c2ccc3c(nnn3CC3CC3)c2C)C(C)(C)C(=O)O)nc1CN1CC2(CCOCC2)Oc2nc(OCCN3CCOCC3)ccc2S1(=O)=O` (stereo not shown) [Example 327, 3-(1-(Cyclopropylmethyl)-4-methyl-1H-benzo[d][1,2,3]triazol-5-yl)-2,2-dimethyl-3-(5-methyl-6-((7′-(2-morpholinoethoxy)-1′,1′-dioxido-2,3,5,6-tetrahydrospiro[pyran-4,4′-pyrido[2,3-b][1,4,5]oxathiazepin]-2′(3′H)-yl)methyl)pyridin-2-yl)propanoic Acid], the Kd in test [1] is under 1 nM. Besides, a half-maximal response in test [2] (EC50) required 6.9 nM.

As to `Cc1ccc(C(CC(=O)O)c2ccc3c(nnn3CC3CC3)c2C)cc1CN1C[C@H]2CCCN2c2ncccc2S1(=O)=O` (stereo partly drawn) [Example 400, 3-(1-(cyclopropylmethyl)-4-methyl-1H-benzo[d][1,2,3]triazol-5-yl)-3-(3-(((R)-5,5-dioxido-7a,8,9,10-tetrahydropyrido[2,3-f]pyrrolo[2,1-d][1,2,5]thiadiazepin-6(7H)-yl)methyl)-4-methylphenyl)propanoic acid], in test [1], the Kd is under 1 nM. Besides, the EC50 in test [2] worked out at 4.1 nM.

Values taken from patent publication US10947252B2, “Inhibitors of KEAP1-Nrf2 protein-protein interaction” (Janssen Pharmaceutica NV, priority 2018, dated 2021).
